Measurements taken from patent US7368423B1, “Composition and method for treating chronic allograft rejection” (priority 2001, dated 2008).

How the values were obtained:
[1] = test system: ACI to LEW rat cardiac transplant; assay type: in vivo; settings: given with CSA
Text: An ACI-LEW rat cardiac transplant model was used to test the ability of 2-CDA to suppress allograft chronic rejection.
Animals were sacrificed at 90 days post transplant. Heart grafts were subjected to evaluation which included the quantification of the extent to which the following pathologies typically associated with chronic allograft rejection were present in the allograft models: myocardial Infiltration (MI), myocardial fibrosis (MF), and intimal proliferation (IP).
Each of these pathologies is associated with the vascular disease of transplant arteriosclerosis.

[2] = test system: allogeneic small bowel transplantation; settings: rats sacrificed ten days after small bowel transplantation; cited from earlier work
heart allografts = settings: cited from earlier work

## Nc1nc(Cl)nc2c1ncn2[C@H]1C[C@H](O)[C@@H](CO)O1 [2-CDA, 2-chlorodeoxyadenosine]
[1]
  most effective dose of 2-CDA: 1 mg per kilogram of recipient body mass per week
[2]
  graft rejection (histology): moderate to severe rejection
Heart allografts; 2-CDA alone
  effect on allograft rejection: no effect
Heart allografts; rats, 10 days post transplant
  rejection of heart allografts (histology): severe rejection
